In the CheMixHub ionic liquid set:

Experiment: xn = mol fraction of the nth substance listed

CCCC(=O)[O-].CC[NH+](CC)CCO + CCCC[n+]1ccn(C)c1.COP(=O)([O-])OC
101 kPa
Conditions | viscosity [mPa·s]
278.15 K, x1 = 0.8006 | 196.8
278.15 K, x1 = 1 | 189
283.15 K, x1 = 0.6001 | 182.3
283.15 K, x1 = 1 | 133.9
288.15 K, x1 = 0.1023 | 864
288.15 K, x1 = 0.6613 | 121.1
293.15 K, x1 = 0.3985 | 163.9
293.15 K, x1 = 0.498 | 123.1
293.15 K, x1 = 0.6001 | 99.4
293.15 K, x1 = 0.8788 | 74.2
298.15 K, x1 = 0.1989 | 264.3
303.15 K, x1 = 0.1989 | 194.8
303.15 K, x1 = 0.6001 | 58.8
308.15 K, x1 = 0.3985 | 73.2
313.15 K, x1 = 0.3026 | 78
313.15 K, x1 = 0.498 | 45.11
313.15 K, x1 = 0.6613 | 33.88
318.15 K, x1 = 0.1023 | 124.4
318.15 K, x1 = 0.6001 | 30.12
318.15 K, x1 = 0.8006 | 23.35
323.15 K, x1 = 0.1989 | 69.7
323.15 K, x1 = 0.6613 | 22.66
328.15 K, x1 = 0.6001 | 20.62
338.15 K, x1 = 0.6613 | 13.49
338.15 K, x1 = 0.8006 | 11.39
338.15 K, x1 = 1 | 9.73
343.15 K, x1 = 0.1989 | 31.59
343.15 K, x1 = 0.3985 | 18.82
343.15 K, x1 = 0.6001 | 12.63
348.15 K, x1 = 0.498 | 13.05
353.15 K, x1 = 0.3026 | 17.55
353.15 K, x1 = 0.8006 | 7.3
353.15 K, x1 = 0.8788 | 6.78
353.15 K, x1 = 1 | 6.11
358.15 K, x1 = 0.3985 | 12.24
358.15 K, x1 = 0.6613 | 7.62
358.15 K, x1 = 1 | 5.31
368.15 K, x1 = 0.3026 | 11.71
368.15 K, x1 = 1 | 4.09

CCCCCC(=O)O.CCCCCC(=O)[O-].CC[NH+](CC)CCO + CCCC[n+]1ccn(C)c1.COP(=O)([O-])OC
101 kPa
Conditions | viscosity [mPa·s]
278.15 K, x1 = 0.2213 | 768
278.15 K, x1 = 0.6088 | 295.3
283.15 K, x1 = 0.0684 | 1280
283.15 K, x1 = 0.4995 | 242.5
283.15 K, x1 = 0.7258 | 185.3
288.15 K, x1 = 0.2213 | 362
288.15 K, x1 = 0.3088 | 259.7
288.15 K, x1 = 1 | 100.1
293.15 K, x1 = 0.4995 | 130.7
293.15 K, x1 = 0.8535 | 90.5
298.15 K, x1 = 0.2213 | 190.1
298.15 K, x1 = 0.3088 | 140.8
303.15 K, x1 = 0.2213 | 142.4
303.15 K, x1 = 0.6088 | 68.7
303.15 K, x1 = 1 | 47.5
308.15 K, x1 = 0.1429 | 147.9
313.15 K, x1 = 0.0684 | 157
313.15 K, x1 = 0.3088 | 65.2
318.15 K, x1 = 0.3966 | 43.87
318.15 K, x1 = 0.8535 | 29.04
323.15 K, x1 = 0.3966 | 35.8
328.15 K, x1 = 0.4995 | 26.14
328.15 K, x1 = 1 | 17.75
338.15 K, x1 = 0.0684 | 48.21
338.15 K, x1 = 0.2213 | 30.03
338.15 K, x1 = 1 | 12.81
343.15 K, x1 = 0.0684 | 39.73
343.15 K, x1 = 0.2213 | 25.3
343.15 K, x1 = 0.3088 | 20.61
348.15 K, x1 = 1 | 9.52
353.15 K, x1 = 0.2213 | 18.5
353.15 K, x1 = 0.4995 | 11.83
353.15 K, x1 = 0.7258 | 10.11
353.15 K, x1 = 1 | 8.28
358.15 K, x1 = 0.2213 | 16.02
358.15 K, x1 = 1 | 7.24
368.15 K, x1 = 0.3966 | 9.02
373.15 K, x1 = 0.2213 | 10.88

OCCN(CCO)CCO + CCCC[n+]1ccn(C)c1.F[B-](F)(F)F
Conditions | viscosity [mPa·s]
303.15 K, 101 kPa, x1 = 1 | 400

c1ccsc1 + CCCC[n+]1ccn(C)c1.N#C[S-]
100 kPa, x1 = 1
Conditions | viscosity [mPa·s]
298.15 K | 0.655
308.15 K | 0.585
318.15 K | 0.525
328.15 K | 0.47

CN(C)c1ccccc1 + CCCC[n+]1ccn(C)c1.O=S(=O)([N-]S(=O)(=O)C(F)(F)F)C(F)(F)F
viscosity [mPa·s], 100 kPa
Conditions | 288.15 K | 293.15 K | 298.15 K | 303.15 K | 308.15 K | 313.15 K | 318.15 K | 323.15 K | 328.15 K | 333.15 K
x1 = 0.1 | 65.1 | 51.3 | 41.3 | 34 | 28.3 | 23.6 | 20.23 | 17.37 | 15.09 | 13.19
x1 = 0.2 | 52.2 | 41.4 | 33.6 | 28 | 23.4 | 19.61 | 16.9 | 14.6 | 12.74 | 11.19
x1 = 0.2993 | 40.5 | 32.4 | 26.6 | 22.26 | 18.75 | 15.88 | 13.77 | 11.97 | 10.49 | 9.29
x1 = 0.4001 | 30.4 | 24.6 | 20.44 | 17.16 | 14.66 | 12.5 | 10.93 | 9.56 | 8.44 | 7.52
x1 = 0.5005 | 21.72 | 17.79 | 15.06 | 12.73 | 10.96 | 9.44 | 8.34 | 7.36 | 6.55 | 5.86
x1 = 0.5993 | 15.08 | 12.54 | 10.77 | 9.21 | 8.02 | 7 | 6.21 | 5.53 | 4.98 | 4.49
x1 = 0.7 | 9.89 | 8.36 | 7.29 | 6.34 | 5.58 | 4.93 | 4.42 | 3.98 | 3.62 | 3.29
x1 = 0.7996 | 6.07 | 5.25 | 4.64 | 4.12 | 3.68 | 3.3 | 3 | 2.74 | 2.5 | 2.3
x1 = 0.8997 | 3.33 | 2.96 | 2.67 | 2.42 | 2.205 | 2.028 | 1.858 | 1.716 | 1.591 | 1.485
x1 = 1 | 1.536 | 1.415 | 1.302 | 1.206 | 1.123 | 1.056 | 0.981 | 0.92 | 0.865 | 0.819
